Tests used:
[1] = biological target: CYP3A4 (Homo sapiens, UniProt P08684); settings: cited from earlier work
[2] = biological target: P-gp (Homo sapiens, UniProt P08183); settings: in vitro; cited from earlier work
[3] = biological target: T1, UGT1A1 (Homo sapiens, UniProt P22309); settings: cited from earlier work
T1 sequence (P22309 26-533): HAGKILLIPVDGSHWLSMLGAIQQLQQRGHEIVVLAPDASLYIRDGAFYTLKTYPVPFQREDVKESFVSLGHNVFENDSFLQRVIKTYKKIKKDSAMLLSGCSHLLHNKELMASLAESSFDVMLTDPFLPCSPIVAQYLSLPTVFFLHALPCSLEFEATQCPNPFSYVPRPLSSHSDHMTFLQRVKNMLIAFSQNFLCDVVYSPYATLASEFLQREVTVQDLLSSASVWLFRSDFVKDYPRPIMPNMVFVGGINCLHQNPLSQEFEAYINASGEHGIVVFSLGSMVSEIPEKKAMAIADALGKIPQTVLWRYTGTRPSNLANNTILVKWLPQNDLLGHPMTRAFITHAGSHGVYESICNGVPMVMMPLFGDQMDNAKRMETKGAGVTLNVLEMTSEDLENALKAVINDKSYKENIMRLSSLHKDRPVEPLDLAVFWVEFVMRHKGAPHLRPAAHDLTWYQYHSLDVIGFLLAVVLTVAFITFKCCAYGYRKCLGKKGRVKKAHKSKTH

[4] = biological target: T2, UGT1A3 (Homo sapiens, UniProt P35503); settings: in vitro; cited from earlier work
T2 sequence (P35503 29-534): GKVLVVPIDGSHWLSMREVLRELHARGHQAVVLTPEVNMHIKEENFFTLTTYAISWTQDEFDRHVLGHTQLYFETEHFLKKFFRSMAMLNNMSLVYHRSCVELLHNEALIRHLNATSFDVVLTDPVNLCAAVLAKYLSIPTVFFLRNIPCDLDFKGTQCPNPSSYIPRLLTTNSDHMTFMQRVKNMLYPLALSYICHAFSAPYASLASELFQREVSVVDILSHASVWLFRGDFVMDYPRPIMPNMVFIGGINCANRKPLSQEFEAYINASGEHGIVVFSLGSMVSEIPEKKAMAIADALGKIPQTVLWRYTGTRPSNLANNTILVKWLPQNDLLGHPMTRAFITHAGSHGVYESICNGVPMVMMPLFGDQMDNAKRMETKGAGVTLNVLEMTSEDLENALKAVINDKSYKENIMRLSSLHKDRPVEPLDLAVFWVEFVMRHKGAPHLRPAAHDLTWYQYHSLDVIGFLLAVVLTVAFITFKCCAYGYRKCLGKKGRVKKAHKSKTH

[5] = biological target: T3, BCRP (Homo sapiens, UniProt Q9UNQ0); settings: in vitro; cited from earlier work
T3 sequence (Q9UNQ0 1-655): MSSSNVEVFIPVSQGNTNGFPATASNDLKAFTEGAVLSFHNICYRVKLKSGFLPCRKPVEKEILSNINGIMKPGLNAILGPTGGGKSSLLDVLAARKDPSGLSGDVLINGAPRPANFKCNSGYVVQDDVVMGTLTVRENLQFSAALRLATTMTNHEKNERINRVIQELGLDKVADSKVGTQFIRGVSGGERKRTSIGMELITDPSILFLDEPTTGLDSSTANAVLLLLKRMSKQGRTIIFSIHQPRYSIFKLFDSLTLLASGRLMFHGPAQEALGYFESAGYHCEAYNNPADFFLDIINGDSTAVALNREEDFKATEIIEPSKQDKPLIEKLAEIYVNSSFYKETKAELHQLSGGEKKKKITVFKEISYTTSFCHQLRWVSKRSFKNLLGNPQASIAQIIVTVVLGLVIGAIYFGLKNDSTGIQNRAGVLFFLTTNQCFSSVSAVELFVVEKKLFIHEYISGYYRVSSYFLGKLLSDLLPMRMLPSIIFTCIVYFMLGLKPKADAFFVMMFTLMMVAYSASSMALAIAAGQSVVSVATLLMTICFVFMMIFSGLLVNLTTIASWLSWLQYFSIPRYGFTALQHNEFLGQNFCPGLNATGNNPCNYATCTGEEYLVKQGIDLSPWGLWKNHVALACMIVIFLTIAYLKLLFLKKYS

[6] = biological target: T4, UGT1A9 (Homo sapiens, UniProt O60656); settings: in vitro; cited from earlier work
T4 sequence (O60656 26-530): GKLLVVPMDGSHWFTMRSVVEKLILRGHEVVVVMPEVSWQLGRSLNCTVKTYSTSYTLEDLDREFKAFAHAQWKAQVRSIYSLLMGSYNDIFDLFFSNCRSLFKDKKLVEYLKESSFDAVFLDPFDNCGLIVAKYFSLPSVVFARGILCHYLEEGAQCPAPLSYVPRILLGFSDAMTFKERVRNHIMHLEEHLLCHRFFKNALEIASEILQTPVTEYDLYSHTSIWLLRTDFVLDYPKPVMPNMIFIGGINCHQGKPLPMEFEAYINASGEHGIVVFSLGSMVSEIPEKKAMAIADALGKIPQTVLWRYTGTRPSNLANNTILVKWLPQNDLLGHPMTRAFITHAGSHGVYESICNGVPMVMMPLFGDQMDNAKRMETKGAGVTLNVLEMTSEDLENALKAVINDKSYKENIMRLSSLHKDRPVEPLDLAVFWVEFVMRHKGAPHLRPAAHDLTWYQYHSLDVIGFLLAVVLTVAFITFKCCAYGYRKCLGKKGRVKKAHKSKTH

[7] = Drug-drug interactions: effect on concentration on co-administration (Table 1)
[8] = system: CYP3A; settings: cited from earlier work
[9] = biological target: T5, human cellular DNA polymerase γ (Homo sapiens, UniProt P54098); settings: cited from earlier work
T5 sequence (P54098 1-1239): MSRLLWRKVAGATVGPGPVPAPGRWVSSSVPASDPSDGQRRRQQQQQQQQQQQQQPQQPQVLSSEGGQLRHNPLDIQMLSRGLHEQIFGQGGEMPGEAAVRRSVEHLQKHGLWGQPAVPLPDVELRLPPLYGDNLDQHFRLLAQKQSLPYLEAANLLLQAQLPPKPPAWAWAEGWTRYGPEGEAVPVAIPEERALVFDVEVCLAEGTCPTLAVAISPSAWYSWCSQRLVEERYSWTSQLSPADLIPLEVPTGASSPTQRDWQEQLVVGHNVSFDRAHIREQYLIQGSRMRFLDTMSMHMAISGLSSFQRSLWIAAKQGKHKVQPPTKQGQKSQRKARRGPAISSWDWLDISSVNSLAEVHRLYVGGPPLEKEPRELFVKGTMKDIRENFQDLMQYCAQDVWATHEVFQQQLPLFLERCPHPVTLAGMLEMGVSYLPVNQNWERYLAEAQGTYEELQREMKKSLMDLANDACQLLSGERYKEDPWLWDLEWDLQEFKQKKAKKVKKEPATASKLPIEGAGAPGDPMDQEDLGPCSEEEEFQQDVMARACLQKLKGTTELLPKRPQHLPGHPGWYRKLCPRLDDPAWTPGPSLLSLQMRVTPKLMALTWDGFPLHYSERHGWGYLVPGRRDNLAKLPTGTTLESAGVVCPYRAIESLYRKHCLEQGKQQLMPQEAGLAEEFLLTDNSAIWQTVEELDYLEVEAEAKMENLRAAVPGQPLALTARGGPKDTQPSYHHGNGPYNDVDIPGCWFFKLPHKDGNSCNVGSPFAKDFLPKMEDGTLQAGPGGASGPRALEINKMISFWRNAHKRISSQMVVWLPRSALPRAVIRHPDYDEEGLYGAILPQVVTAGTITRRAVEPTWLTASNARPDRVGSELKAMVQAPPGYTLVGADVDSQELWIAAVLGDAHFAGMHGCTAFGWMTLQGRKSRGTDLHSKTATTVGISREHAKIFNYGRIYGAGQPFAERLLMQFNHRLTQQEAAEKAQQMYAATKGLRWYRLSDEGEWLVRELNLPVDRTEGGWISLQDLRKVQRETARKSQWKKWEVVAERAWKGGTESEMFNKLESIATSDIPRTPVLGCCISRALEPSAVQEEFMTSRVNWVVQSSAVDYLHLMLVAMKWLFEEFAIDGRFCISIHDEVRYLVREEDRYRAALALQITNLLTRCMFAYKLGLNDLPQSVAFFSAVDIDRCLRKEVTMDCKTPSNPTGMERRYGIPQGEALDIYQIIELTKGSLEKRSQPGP

[10] = system: CYP enzymes; settings: rilpivirine 25 mg once daily; cited from earlier work
[11] = biological target: T6, human cellular DNA polymerase α (Homo sapiens, UniProt P09884); settings: cited from earlier work
T6 sequence (P09884 1-1462): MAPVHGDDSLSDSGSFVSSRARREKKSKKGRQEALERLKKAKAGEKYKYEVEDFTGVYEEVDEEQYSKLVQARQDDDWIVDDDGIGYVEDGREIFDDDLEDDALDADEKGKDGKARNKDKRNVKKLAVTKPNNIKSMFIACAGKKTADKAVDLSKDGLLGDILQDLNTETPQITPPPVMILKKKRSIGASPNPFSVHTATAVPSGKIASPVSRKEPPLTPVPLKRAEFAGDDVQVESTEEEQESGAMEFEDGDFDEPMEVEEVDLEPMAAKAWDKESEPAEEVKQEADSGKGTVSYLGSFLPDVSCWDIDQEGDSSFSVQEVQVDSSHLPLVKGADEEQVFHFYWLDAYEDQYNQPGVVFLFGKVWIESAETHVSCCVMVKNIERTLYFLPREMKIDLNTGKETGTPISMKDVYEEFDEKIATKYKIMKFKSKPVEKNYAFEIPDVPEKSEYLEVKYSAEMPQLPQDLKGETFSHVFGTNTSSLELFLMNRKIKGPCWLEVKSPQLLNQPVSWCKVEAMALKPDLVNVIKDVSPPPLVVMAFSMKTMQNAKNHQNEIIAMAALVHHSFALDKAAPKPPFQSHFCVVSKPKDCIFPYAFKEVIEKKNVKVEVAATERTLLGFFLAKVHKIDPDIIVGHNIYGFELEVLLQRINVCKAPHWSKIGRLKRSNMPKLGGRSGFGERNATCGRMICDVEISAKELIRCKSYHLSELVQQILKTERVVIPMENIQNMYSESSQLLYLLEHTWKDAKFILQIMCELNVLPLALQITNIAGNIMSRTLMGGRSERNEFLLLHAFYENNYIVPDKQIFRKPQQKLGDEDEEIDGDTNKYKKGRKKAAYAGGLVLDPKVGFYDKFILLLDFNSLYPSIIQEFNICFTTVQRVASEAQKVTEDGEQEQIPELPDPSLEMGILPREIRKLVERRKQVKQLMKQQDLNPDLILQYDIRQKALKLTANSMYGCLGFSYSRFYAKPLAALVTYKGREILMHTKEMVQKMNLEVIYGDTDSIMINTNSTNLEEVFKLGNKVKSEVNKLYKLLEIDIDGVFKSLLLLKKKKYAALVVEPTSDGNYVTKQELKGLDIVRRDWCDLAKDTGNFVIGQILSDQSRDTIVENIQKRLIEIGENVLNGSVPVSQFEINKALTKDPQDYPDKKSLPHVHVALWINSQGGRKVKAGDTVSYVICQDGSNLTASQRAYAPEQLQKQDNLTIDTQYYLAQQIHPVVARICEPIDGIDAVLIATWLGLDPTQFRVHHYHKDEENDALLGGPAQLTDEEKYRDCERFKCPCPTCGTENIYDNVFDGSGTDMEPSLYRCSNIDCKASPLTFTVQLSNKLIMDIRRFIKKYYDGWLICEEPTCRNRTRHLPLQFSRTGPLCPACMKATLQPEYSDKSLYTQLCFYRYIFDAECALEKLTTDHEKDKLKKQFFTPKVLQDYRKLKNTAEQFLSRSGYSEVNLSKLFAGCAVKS

[12] = biological target: human cellular DNA polymerase β (Homo sapiens, UniProt P06746); settings: cited from earlier work

Chain of CYP3A4 (P08684 whole entry): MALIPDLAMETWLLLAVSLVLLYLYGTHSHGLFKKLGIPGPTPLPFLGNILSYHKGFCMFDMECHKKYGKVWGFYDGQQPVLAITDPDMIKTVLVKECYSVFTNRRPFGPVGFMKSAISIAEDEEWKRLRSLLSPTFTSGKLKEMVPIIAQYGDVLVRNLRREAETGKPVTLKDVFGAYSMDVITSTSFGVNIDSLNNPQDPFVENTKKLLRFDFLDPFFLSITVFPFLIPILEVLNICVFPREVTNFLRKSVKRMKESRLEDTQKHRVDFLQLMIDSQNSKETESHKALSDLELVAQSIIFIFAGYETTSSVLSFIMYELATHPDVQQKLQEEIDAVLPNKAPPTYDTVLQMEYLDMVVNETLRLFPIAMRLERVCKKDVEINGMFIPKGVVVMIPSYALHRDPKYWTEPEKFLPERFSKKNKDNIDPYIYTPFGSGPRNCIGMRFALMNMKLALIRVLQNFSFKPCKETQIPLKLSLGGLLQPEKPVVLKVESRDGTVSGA
Chain of P-gp (P08183 whole entry): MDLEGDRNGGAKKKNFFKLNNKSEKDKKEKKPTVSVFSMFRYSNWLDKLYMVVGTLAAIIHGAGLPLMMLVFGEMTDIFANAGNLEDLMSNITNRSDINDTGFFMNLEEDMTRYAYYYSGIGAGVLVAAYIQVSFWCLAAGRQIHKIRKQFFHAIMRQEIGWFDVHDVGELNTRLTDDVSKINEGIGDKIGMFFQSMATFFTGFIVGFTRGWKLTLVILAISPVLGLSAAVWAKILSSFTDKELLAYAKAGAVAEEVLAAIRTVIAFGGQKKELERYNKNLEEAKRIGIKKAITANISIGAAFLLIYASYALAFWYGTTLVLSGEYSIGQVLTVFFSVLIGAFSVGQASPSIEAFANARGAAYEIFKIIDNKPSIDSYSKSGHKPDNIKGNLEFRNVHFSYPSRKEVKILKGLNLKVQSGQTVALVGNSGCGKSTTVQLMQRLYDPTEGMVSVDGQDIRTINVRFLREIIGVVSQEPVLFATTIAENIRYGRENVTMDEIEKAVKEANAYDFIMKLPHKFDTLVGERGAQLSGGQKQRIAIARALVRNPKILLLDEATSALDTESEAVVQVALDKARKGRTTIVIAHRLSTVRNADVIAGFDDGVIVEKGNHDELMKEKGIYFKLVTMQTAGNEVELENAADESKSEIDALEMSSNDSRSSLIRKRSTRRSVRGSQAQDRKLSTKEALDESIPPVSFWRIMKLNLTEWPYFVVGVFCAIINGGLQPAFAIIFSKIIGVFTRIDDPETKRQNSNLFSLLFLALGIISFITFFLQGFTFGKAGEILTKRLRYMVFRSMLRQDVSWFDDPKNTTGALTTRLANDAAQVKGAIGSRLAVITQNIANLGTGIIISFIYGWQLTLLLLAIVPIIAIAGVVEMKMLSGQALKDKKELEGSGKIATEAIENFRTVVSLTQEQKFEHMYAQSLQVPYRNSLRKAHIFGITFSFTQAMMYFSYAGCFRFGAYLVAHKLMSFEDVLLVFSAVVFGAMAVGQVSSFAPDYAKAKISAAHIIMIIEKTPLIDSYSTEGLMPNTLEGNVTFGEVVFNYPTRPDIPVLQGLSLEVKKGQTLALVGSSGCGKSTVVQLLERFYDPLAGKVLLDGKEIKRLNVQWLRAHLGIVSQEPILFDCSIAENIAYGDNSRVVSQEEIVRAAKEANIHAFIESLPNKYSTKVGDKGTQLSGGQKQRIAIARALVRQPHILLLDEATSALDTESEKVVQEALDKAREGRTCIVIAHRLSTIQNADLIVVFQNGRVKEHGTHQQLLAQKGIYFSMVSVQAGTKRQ

Compound: O=C(NCc1c(F)cc(F)cc1F)c1cn2c(c(O)c1=O)C(=O)N1[C@H]3CC[C@H](C3)O[C@@H]1C2 [Bictegravir, (2R,5S,13aR)-8-hidroxi-7,9-dioxo-N-[(2,4,6-trifluorofenil)metil]-2,3,4,5,7,9,13,13a-octahidro-2,5-metanopirido [1′,2′:4,5]pirazino[2,1-b][1,3]oxazepina-10-carboxamida]
- Metabolic clearance through CYP3A4 [1]: metabolically cleared
- Substrate of P-gp [2]: substrate
- Metabolic clearance through UGT1A1 [3]: metabolically cleared
- Substrate of UGT1A3 [4]: substrate
- Substrate of BCRP [5]: substrate
- Substrate of UGT1A9 [6]: substrate

Compound: CN(C)C(=N)N=C(N)N [Metformin]
- Effect on Concentration ([7]; concomitant use of metformin and a composition of the invention): ↑Metformin

Compound: CCC(=O)C(CC(C)N(C)C)(c1ccccc1)c1ccccc1 (centres unmarked) [Methadone]
- Effect on Concentration ([7]; concomitant use of methadone and a composition of the invention): ↔Methadone

Compound: CO[C@H]1/C=C/O[C@@]2(C)Oc3c(C)c(O)c4c(c3C2=O)C2=NC3(CCN(CC(C)C)CC3)NC2=C(NC(=O)/C(C)=C\C=C\[C@H](C)[C@H](O)[C@@H](C)[C@@H](O)[C@@H](C)[C@H](OC(C)=O)[C@@H]1C)C4=O [Rifabutin]
- Effect on Concentration ([7]; concomitant use of rifabutin and a composition of the invention): ↔Rifabutin

Compound: Cc1cc(/C=C/C#N)cc(C)c1Nc1ccnc(Nc2ccc(C#N)cc2)n1 [Rilpivirine, 4-[[4-[[4-[(E)-2-cyanoethenyl]-2,6-dimethylphenyl]amino]-2-pyrimidinyl]amino]benzonitrile]
- Metabolism by CYP3A [8]: primarily metabolized
- Inhibition of human cellular DNA polymerase γ [9]: does not inhibit
- Effect on the exposure of medicinal products metabolized by CYP enzymes [10]: not likely to have a clinically relevant effect
- Inhibition of human cellular DNA polymerase α [11]: does not inhibit
- Inhibition of human cellular DNA polymerase β [12]: does not inhibit

Reference: US10758531B2, “Regimens and compositions for treating HIV infections and AIDS” (ViiV Healthcare Company, priority 2016, dated 2020)
